Laboratory results: patent US11666650B2, “Immune composition comprising respiratory syncytial virus (RSV) G polypeptide” (ADVACCINE (SUZHOU) BIOPHARMACEUTICALS CO. LTD., priority 2019, dated 2023)

Key:
[1] = tested on: JAWSII cells; experiment: IL-1β inhibition in stimulated JAWSII cells; format: cell-based, mouse; conditions: immune regulator alone, LPS+Alum stimulated, 24 hours
Protocol: JAWSII cells (mouse bone marrow cells) were recovery from liquid nitrogen and put into a water bath at 37° C. The cells were washed twice with the MEM media. The recovered cells were cultured in 10 mL cMEM (MEM+20% FBS+5 ng/mL rmGM-CSF) for 5-7 days. The cells were ready for use after 2 passages.
The cell supernatant was collected for further analysis.
Each supernatant noted above was centrifuged under 12000 rpm at 4° C. for 5 minutes. The level of IL-1β (an immune active biomarker) was measured following the ELISA procedure provided below.
15. Calculate the IL-1β concentration of tested subject by standard curve. Inhibition percentage (%) was calculated as the percentage of the reduction of IL-1β level of each tested sample as compared with the positive control (LPS+Alum) and the blank control.

[2] = tested on: red blood cell suspension; experiment: Hemolytic assay of formulations; format: cell-based, Mouse
Protocol: Mouse blood was collected and added with 800 μl of 15 mg/ml of EDTA to prevent the coagulation. It was centrifuged at 1,500 rpm for 15 min followed by discarding of the supernatant. The pellet was resuspended into 1 ml PBS, and centrifugated at 1,500 rpm for 15 min. The procedure was repeated for approximately 2 or 3 times until the supernatant became clear. The pellet containing red blood cells was resuspended with PBS at 1:10 to get 10% of red cell suspension after discarding supernatant, then further diluted into 2% with PBS. Five hundred microliters of 2% red blood cell suspension were mixed with 500 μl of different formulations, respectively, for a period of 180 minutes at 37° C. The hemolysis was recorded by a camera from the beginning to the end. After that, sample was centrifuged at 1,500 rpm for 2 min, the absorbance of supernatant was measured at OD405nm and the results were statistically analyzed.

SMILES | inhibition (immune suppression) of IL-1β level [1] | hemolysis [2]
CO[C@H]1C[C@@H]2CC[C@@H](C)[C@@](O)(O2)C(=O)C(=O)N2CCCC[C@H]2C(=O)O[C@H]([C@H](C)C[C@@H]2CC[C@@H](O)[C@H](OC)C2)CC(=O)[C@H](C)/C=C(\C)[C@@H](O)[C@@H](OC)C(=O)[C@H](C)C[C@H](C)/C=C/C=C/C=C/1C [rapamycin] | around 60% | 
CC(O)CO (stereo not drawn) [propylene glycol] |  | Various degrees of hemolysis
C=CC[C@@H]1/C=C(\C)C[C@H](C)C[C@H](OC)[C@H]2O[C@@](O)(C(=O)C(=O)N3CCCC[C@H]3C(=O)O[C@H](/C(C)=C/[C@@H]3CC[C@@H](O)[C@H](OC)C3)[C@H](C)[C@@H](O)CC1=O)[C@H](C)C[C@@H]2OC [FK506] | around 100% | 
